The record followed here is US9340577B2, “HLA binding motifs and peptides and their uses” (priority 1992, dated 2016).

No end group written: not given here.

Common to all, as to assay: biochemical
One experiment concerns the target DRB1*1501 (Homo sapiens, UniProt P01903+P01911). Format: binding.
The target in another experiment is DR7 (DRB1*0701) (Homo sapiens, UniProt P01903+P01911, A100R/A102G/A103Q/D57E/D86V/E43K/F76Y/K127E/L162R/M171V/P40G/Q125H/Q99D/R33Q/R42Y/R54Q/S133A/S66F/T210M/V115G/Y107V/Y59L/Y89S). Format: binding.
In another experiment the target is DRB5*0101 (Homo sapiens, UniProt P01903+Q30154). The conditions noted are these: Binding affinity DRB5 *0101.
Another experiment has as its target DR1 (DRB1*0101) (Homo sapiens, UniProt P01903+P01911, A100R/D57E/F55L/F60I/F76Y/I96L/L162R/M171V/P40L/Q125E/R42F/V115G/Y59C). Format: binding.
The target in the next experiment is DRB1*1302 (Homo sapiens, UniProt P01903+P01911, A100E/A169T/K41T/L162R/M171V/P40S/Q125H/Q178H/Q39Y/Q99D/R42S/S66N/T262R/V115G/W38E/Y61H). The experiment is classed as binding.
For another experiment, the target named is DRB1*0301 (Homo sapiens, UniProt P01903+P01911, A100K/A102G/A103R/A169T/F55Y/I96L/K41T/L162R/M171V/P40S/Q125H/Q178H/Q39Y/R42S/S66N/T106N/T262R/W38E/Y61H). The experiment is classed as binding.
The next experiment has as its target DRB1*0405 (Homo sapiens, UniProt P01903+P01911, A100R/A169T/D86S/F76Y/I96L/K127E/L162R/M171V/N62H/P40V/Q125Y/R42H/S133A/S149N/S66Y/V115G/V209L/W38E). Format: binding.
For the next experiment, the target named is DRB1*1201 (Homo sapiens, UniProt P01903+P01911, A100R/A169T/D57E/D86V/F55L/H45Y/K41T/L162R/M171V/P40S/Q125H/Q178H/Q39Y/Q99D/R42G/S66L/T262R/V114A/V67L/W38E/Y59H/Y61H/Y89S). Format: binding.
The next experiment concerns the target DRB1*0901 (Homo sapiens, UniProt P01903+P01911, A100R/A103E/D57H/D86V/F55Y/F60I/F76Y/I96F/K127E/L162R/M171V/P40D/Q125H/Q99R/R33Q/R42F/S133A/S66N/T210M/V115G/W38K/Y107V/Y59G/Y89S). The experiment is classed as binding.
The target in the next experiment is DRB4*0101 (Homo sapiens, UniProt P01903+P13762, G164S). The experiment is classed as binding.
For a further experiment, the target named is DRB1*0802 (Homo sapiens, UniProt P01903+P01911, A100R/A103L/A169T/F76Y/H45Y/I96F/K41T/L162R/M171V/P40S/Q125H/Q178H/Q39Y/Q99D/R218S/R42G/S66Y/V115G/W38E). The experiment is classed as binding.
Another experiment addresses DRB1*1101 (Homo sapiens, UniProt P01903+P01911, A100R/A169T/A87E/I96F/K41T/L162R/M171V/P40S/Q125H/Q178H/Q39Y/Q99D/R42S/S66Y/T262R/V115G/W38E). The conditions noted are these: Binding affinity DRB1 *1101.
For another experiment, the target named is DR4w4 (DRB1*0401) (Homo sapiens, UniProt P01903+P01911, A100K/A169T/F76Y/I96L/K127E/L162R/M171V/N62H/P40V/Q125Y/R42H/S133A/S149N/S66Y/V115G/V209L/W38E). The experiment is classed as binding.

Sequence of DRB1*0301 (P01903 26-254 limits assumed, other chains not shown): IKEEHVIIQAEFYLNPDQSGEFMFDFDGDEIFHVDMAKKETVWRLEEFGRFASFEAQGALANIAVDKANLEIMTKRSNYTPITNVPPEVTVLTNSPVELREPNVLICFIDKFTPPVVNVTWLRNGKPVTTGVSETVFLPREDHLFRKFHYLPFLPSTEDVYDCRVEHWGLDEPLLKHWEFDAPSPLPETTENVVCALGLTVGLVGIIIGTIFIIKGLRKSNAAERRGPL
Sequence of DRB1*1101 (P01903 26-254 limits assumed, other chains not shown): as above
Sequence of DRB1*1302 (P01903 26-254 limits assumed, other chains not shown): as above

One may read the IC50 as the concentration that gives 50% inhibition. For the sequence TGWFEVEAVIERRTG [Peptide 90.0075], the IC50 against DRB1*1501 was over 20000 nM; at DR7 (DRB1*0701) it was 4930 nM; at DRB5*0101, 362 nM; against DR1 (DRB1*0101), 17100 nM; against DRB1*1302, over 20000 nM; against DRB1*0301, 17 nM. Further, the IC50 against DRB1*0405 is 6110 nM; at DRB1*1201, over 20000 nM; against DRB1*0901 it was over 20000 nM; against DRB4*0101 it was over 20000 nM.

As for KTLIKPATLYAHIQC [Peptide 89.0083], the concentration for half-maximal inhibition (IC50) at DRB1*1501 amounted to 654 nM; at DR7 (DRB1*0701), 308 nM; on DRB5*0101 it was 5230 nM; against DR1 (DRB1*0101), 60 nM; against DRB1*0802, 231 nM; against DRB1*0301, 1220 nM. Also, the IC50 on DRB1*1101 worked out at 35 nM; against DRB1*0405, 841 nM; against DRB1*1201, 422 nM; at DRB4*0101, 51 nM.

Take VTVFTFPHAFPFDKN [Peptide 89.0092]: the half-maximal inhibitory concentration (IC50) is 63 nM against DRB1*1501; 5.5 nM on DR7 (DRB1*0701); 226 nM at DRB5*0101; over 20000 nM against DRB1*1302; over 20000 nM against DRB1*0301; 10200 nM at DRB1*0405. The concentration for half-maximal inhibition (IC50) was determined as 131 nM against DRB1*1201, 33 nM on DRB1*0901 and 1500 nM on DRB4*0101.

ISEVYGDTPEWIQRQ [Peptide 90.0035]: the IC50 against DRB1*1501 is over 20000 nM; at DR7 (DRB1*0701) it was 6870 nM; at DRB5*0101, over 20000 nM; on DR1 (DRB1*0101), over 20000 nM; at DRB1*1302 it was 6.9 nM; at DRB1*0802, over 20000 nM. Moreover, the concentration for half-maximal inhibition (IC50) was 50 nM at DRB1*0301; over 20000 nM at DRB1*1101; over 20000 nM at DR4w4 (DRB1*0401); 12800 nM at DRB1*0405; over 20000 nM against DRB1*1201; over 20000 nM on DRB1*0901.

Consider PEWIQRLTIIQHGID [Peptide 89.0031], for which the IC50 against DRB1*1501 is 3420 nM; at DRB5*0101, 240 nM; against DR1 (DRB1*0101), 879 nM; against DRB1*1302 it was 558 nM; on DRB1*0802, 187 nM; against DRB1*0301, 4380 nM. Moreover, the IC50 at DRB1*1101 was determined as 596 nM; against DRB1*0405 it was 131 nM; on DRB1*1201, 527 nM; against DRB1*0901, 4510 nM; against DRB4*0101, 3.3 nM.

Take ETCMLIEPPKLRSSV [Peptide 89.0084]: the IC50 at DR7 (DRB1*0701) amounted to 756 nM; on DR1 (DRB1*0101), 35 nM; at DRB1*1302, 481 nM; against DRB1*0802, 1350 nM; against DRB1*0301 it was 359 nM; on DRB1*1101, 123 nM. The IC50 amounted to 906 nM at DRB1*0405, 708 nM at DRB1*1201, 5120 nM on DRB1*0901 and 48 nM against DRB4*0101.

KIGMLDDATVPCWNY [Peptide 90.0040]: the IC50 against DRB1*1501 was over 20000 nM; on DR7 (DRB1*0701) it was over 20000 nM; at DRB5*0101, over 20000 nM; on DR1 (DRB1*0101), 4430 nM; on DRB1*1302, over 20000 nM; against DRB1*0802 it was over 20000 nM. For the same sequence, the IC50 against DRB1*0301 was 160 nM; at DRB1*1101 it was over 20000 nM; on DR4w4 (DRB1*0401), 490 nM; at DRB1*0405, over 20000 nM; against DRB1*1201, 12700 nM; against DRB1*0901, over 20000 nM.

Regarding QMFLGTVKIPPTVQI [Peptide 89.0188], the concentration for half-maximal inhibition (IC50) against DRB1*1501 stood at 208 nM; against DR7 (DRB1*0701) it was 4650 nM; at DRB5*0101, 4490 nM; on DRB1*0802 it was 503 nM; against DRB1*0301, 160 nM; on DRB1*1101 it was 474 nM. The IC50 against DRB1*0405 was 616 nM; against DRB1*1201, 553 nM; against DRB1*0901, over 20000 nM; against DRB4*0101, 13 nM.

AFQVIELQMALETLN [Peptide 90.0024]: the 50% inhibitory concentration (IC50) was 378 nM at DRB1*1501; over 20000 nM at DRB5*0101; 29 nM against DR1 (DRB1*0101); 89 nM on DRB1*1302; 4950 nM against DRB1*0802; 1280 nM against DRB1*0301. The concentration for half-maximal inhibition (IC50) on DRB1*1101 is 3340 nM; against DRB1*0405 it was 2100 nM; against DRB1*1201, 466 nM; against DRB4*0101, 11 nM.
